These are literature values, as cited in patent US10307392B2, “Compound and method for treatment of diseases and disorders” (priority 2017, dated 2019).

The subject of one data set is spasticity. The settings on record: in vivo.
In data set [1] the test system is subjects with noninsulin-treated type 2 diabetes.
Data set [2] concerns patients receiving Marinol.
For data set [3] the following is noted: cyclic voltametry and fenton reaction-based system.
The subject of data set [4] is rat cortical neuron cultures exposed to toxic levels of the neurotransmitter, glutamate. Conditions: for prevention of glutamate toxicity: isolated or synthetic cannabinoid, in vitro neuronal cultures exposed to glutamate; for NMDA, AMPA and kainate receptor mediated neurotoxicity: not affected by cannabinoid receptor antagonist.
In another data set the test system is MS patients. The settings on record: 13 weeks' follow-up.
In data set [5] the test system is PBQ-induced writhing in mice. Conditions: for reducing analgesia and inflammation: mouse, in vivo.
Another data set relates to Parkinson's disease. Conditions: oral, started with 150 mg/day, 4 weeks.
Data set [6] has as its system females with severe somatoform and dysautonomic syndrome following HPV vaccination. Set-up: dose or concentration left out as unconfirmed. The settings on record: up to a maximum dose of CBD per day; 12 females.

Like-named read-outs stand apart in the source and are kept apart here.

For the compound `CCCCCCC(C)(C)c1cc(O)c2c(c1)OC(C)(C)C1CCC(=O)CC21` (stereo not shown) [Cesamet], the reducing spasticity entry with spasticity is “positive results”.

Consider `CCCc1cc(O)c2c(c1)OC(C)(C)[C@@H]1CCC(C)=C[C@@H]21` [THCV], for which, in data set [1] (10 mg THCV per day), the tolerability result was “well tolerated”.

Take `CCCCCc1cc(O)c2c(c1)OC(C)(C)[C@@H]1CCC(C)=C[C@@H]21` [Marinol]: the reducing spasticity result in the data set on spasticity is “positive results”. Also, the “patients reporting cannabinoid dose-related psychotropic effect” value in data set [2] (antiemetic clinical trials) is listed as 24%; in data set [2] (lower dose appetite stimulant clinical trials) it was 8%. Besides, the “patients reporting a CNS adverse reaction” value in data set [2] (during the first 2 weeks) was “About 25%”; in [2] (each week for the next 6 weeks), “about 4%”. In data set [2] (patients with AIDS, placebo-controlled clinical trials), the “patients reporting adverse experiences involving the CNS” value is 33%.

Turning to `CCCCCc1cc(O)c2c(c1)OC(C)(C)[C@@H]1CCC(C)=C[C@@H]21` [THC, delta-9-tetrahydrocannabinol], the antioxidant activity entry in [3] is recorded as “potent antioxidants”. For the same compound, in data set [4], the “prevention of glutamate toxicity” value is “prevented to some extent”; the “NMDA, AMPA and kainate receptor mediated neurotoxicity” value was “reduced”. Also, the “Mean (SD) change in total Ashworth score (baseline minus follow-up)” value in the data set on MS patients (placebo 0.92 (6.56)) is 1.86 (7.95). The “Mean (SD) change in Ashworth score, lower-body muscle groups” value in the data set with MS patients (placebo 1.04 (4.20)) was 1.39 (5.21). Further, the “Mean (SD) change in Ashworth score, upper-body muscle groups” value in the data set with MS patients (placebo −0.11 (4.04)) is 0.48 (4.70). Moreover, the “reducing analgesia and inflammation” value in data set [5] is “least effective”.

For `C=C(C)[C@@H]1CCC(C)=C[C@H]1c1c(O)cc(CCCCC)cc1O` [CBD, cannabidiol], the “adverse effect during the treatment” value in the data set on Parkinson's disease is recorded as “no adverse effect”. Moreover, in data set [3], the antioxidant activity result was “potent antioxidants”. In [4], the “protective capacity against glutamate toxicity, head to head with other antioxidants” value was “superior to both alpha-tocopherol and ascorbate”; the “prevention of glutamate toxicity” value is recorded as “prevented to some extent”; the “NMDA, AMPA and kainate receptor mediated neurotoxicity” value is listed as “reduced”. Also, the “inhibition of PBQ-induced writhing” value in data set [5] (oral administration, mice) is “most effective”. The tolerability result in data set [1] (200 mg CBD per day, 62 subjects in study) is “well tolerated”. Also, the “hydroperoxide toxicity in neurons” value with neuronal cultures is “reduce hydroperoxide toxicity”. The tolerability result in data set [6] is “well tolerated”.

On to `CCCCCc1cc(O)c2c(c1)OC(C)(C)c1ccc(C)cc1-2` [CBN, cannabinol], for which, in [5], the “reducing analgesia and inflammation” value is listed as “least effective”.
